Assay results: US12728111B2, “Electrophilic compounds and electrophilic prodrugs for treating aneurysm” (University of Pittsburgh—Of the Commonwealth System of …, priority 2020, dated 2026)

Assays:
[1] = test system: AngII/PCSK9-induced AAA mouse model; assay: Ang II plus hypercholesterolemia (AngII/PCSK9) induced AAA mouse model; type: in vivo
Protocol: FIG. 1. Characterization of the protective effect of NO2—OA (10-nitro-octadec-9-enoic acid) in the Ang II plus hypercholesterolemia-induced AAA mouse model. (A) Schematic illustration of the in vivo experimental design. Ten week old male C57BL/6 mice were IP injected with AAV carrying PCSK9 gain-of-function (D377Y) mutation and fed a western diet. After two weeks, each mouse was implanted with a pump delivering AngII at a rate of 1,500 ng/kg/min plus an additional pump containing either PEG-400 (vehicle), OA or NO2—OA with a delivery rate of 5 mg/kg/day (n=25 to 30 per group) and carried to the endpoint for another four weeks. Mice with ruptured aorta within the first week or with total plasma cholesterol less than 250 mg/dl were excluded from the study. (B) Representative morphological differences of the abdominal aorta. (C) AAA incidence calculated by using 1.2 mm as the cutoff diameter indicated by the dotted line in (D). (D) Average maximal diameter of the suprarenal aorta region. (E) Representative H&E and VVG staining of the paraffin-embedded suprarenal aortic cross-sections (5 μm). (F) Grade of elastic fiber degradation in the aorta (1 to 4). A 2×3 Fisher's exact test followed by posthoc test was performed for (C). For (D) and (F), the Kruskal-Wallis test followed by Dunn's multiple comparisons was performed. Continuous data are presented as mean±SEM. Scale bar=20 μm for (E). A p<0.05 for both the main test and post hoc test was considered statistically significant.
Ten weeks old male C57BL/6J mice were purchased from The Jackson Laboratory. The murine AAA model induced by AngII/PCSK9 gain-of-function mutation is well-established. After acclimation for 1 week, mice were fed a western diet (TD.88137, Envigo) and intraperitoneally injected with 2×1011 genomic copies of AAV-PCSK9.D377Y (AAV serotype 8, Penn Vector Core). Two weeks later, each mouse was subcutaneously implanted with two osmotic pumps (Model #2004, Alzet). One was loaded with AngII (#H-1706, Bachem), releasing at a rate of 1,500ng/kg/min, while the other one was loaded with PEG-400, OA or NO2—OA at a delivery rate of 5 mg/kg/day for OA or NO2—OA. After 4-weeks infusion, mice were euthanized and the maximal outer diameter of the suprarenal aorta was assessed with a digital caliper by a third person blinded to the treatment. Suprarenal aortas with a maximal diameter ≥50% larger than standard size (≥1.2 mm) were considered as abdominal aortic aneurysms. Mice dead within the first week of pump implantation or with a serum total cholesterol level less than 250 mg/dL were excluded from the study. All animal procedures were performed following the protocols approved by the Institutional Animal Care & Use Committee (IACUC) at the University of Michigan.
H&E and Verhoeff Van Gieson staining of paraffin or frozen sections of mouse suprarenal abdominal aorta were performed by the In-Vivo Animal Core at the University of Michigan. Elastin degradation grade was calculated as we previously reported.

[2] = test system: oxLDL-induced Il1b and Mmp9 expression in BMDMs; assay: Real-time PCR of oxLDL-induced pro-inflammatory genes in BMDMs; type: cell-based, mouse; settings: PPARγ antagonist or siRNA given with NO2—OA
Protocol: FIG. 3. NO2—OA prevents oxLDL-induced NFκB activation and pro-inflammatory cytokine production. Primary BMDMs were pretreated with vehicle, OA (2.5 μM) or NO2—OA (2.5 μM) for 1 h, followed by treatment of oxLDL (50 to 100 μg/ml) for the indicated times. (A, B) Nuclear (A) and cytoplasmic protein (B) fractions were isolated 1 h after oxLDL treatment and subjected to western blot with antibodies against p65, lamin a/c (nuclear marker) and GAPDH (cytosolic marker). Representative western blot images of three independent experiments are shown. (C) Quantification of the p65 nuclear to cytoplasmic ratio by image studio (normalized by the internal control, n=3). (D-F) Following 8 h of oxLDL treatment, levels of IL6, MCP1 and TNFα in the cell medium were measured by ELISA (n=4). (G) Real-time PCR quantification of gene expression levels of IL1b and Mmp9 in total mRNA extracted from the BMDMs. (C) Ordinary one-way ANOVA followed by Tukey's test was performed. As of (D-F), the basal level contains several non-detectable values, so ordinary one-way ANOVA followed by correction of FDR were performed for the oxLDL-treated groups only. Ordinary one-way ANOVA followed by Tukey's test was performed for (G). Data presented as mean±SEM. A p<0.05 for both the main test and post hoc test was considered statistically significant.
Mice suprarenal aortas were collected after the measurement of their diameter. Human aortic aneurysm samples were obtained from the Department of Cardiac Surgery at the University of Michigan. Samples from humans and mice were snap-frozen in liquid nitrogen for later processing. RNA from tissue was extracted using TRIzol (#15596018, Invitrogen). RNA from cells was isolated with the RNeasy Mini Kit (#74106, QIAGEN). SuperScript™ III First-Strand Synthesis System (#18080051, Invitrogen) was used to reverse-transcribe mRNA into cDNA. Gene expression was quantified in triplicates by quantitative real-time PCR (qPCR) using IQ SYBR Green Supermix (#1708882, Bio-Rad) with the indicated gene primers.

SMILES: CCCCCCCCC=CCCCCCCCC(=O)O [OA, octadec-9-enoic acid, reference compound]
- AAA incidence ([1]; 5 mg/kg/day subcutaneous infusion, after 4 weeks, cutoff diameter 1.2 mm): 69.6%
- maximal diameter of the suprarenal aorta region ([1]; 5 mg/kg/day subcutaneous infusion, after 4 weeks, mean±SEM): 1.78±0.18 mm
- ECM degradation / elastin fiber degradation ([1]; 5 mg/kg/day, 4 weeks, VVG staining, grade 1 to 4): prominent

SMILES: O=C(Nc1ccccc1)c1cc([N+](=O)[O-])ccc1Cl [GW9662, reference compound]
- protective effect of NO2—OA on oxLDL-induced Il1b and Mmp9 expression [2]: partially blocked
